Several values for one entry are separate records, joined by “and”; a condition that tells them apart may be missing. Identical values can stand only once. Like-named read-outs stand apart in the source and are kept apart here.
Assays:
OVCAR-8 = experiment: NCI one-dose screening, ovarian cancer OVCAR-8; type: cell-based, human; settings: 10 μM
SF-295 = experiment: NCI one-dose screening, CNS cancer SF-295; type: cell-based, human; settings: 10 μM
T-47D = experiment: NCI one-dose screening, breast cancer T-47D; type: cell-based, human; settings: 10 μM
BT-549 = experiment: NCI one-dose screening, breast cancer BT-549; type: cell-based, human; settings: 10 μM
SK-MEL-28 = experiment: NCI one-dose screening, melanoma SK-MEL-28; type: cell-based, human; settings: 10 μM
COLO 205 = experiment: NCI one-dose screening, colon cancer COLO 205; type: cell-based, human; settings: 10 μM
MALME-3M = experiment: NCI one-dose screening, melanoma MALME-3M; type: cell-based, human; settings: 10 μM
PC-3 = experiment: NCI one-dose screening, prostate cancer PC-3; type: cell-based, human; settings: 10 μM
UO-31 = experiment: NCI one-dose screening, renal cancer UO-31; type: cell-based, human; settings: 10 μM
HL-60, TB = experiment: NCI one-dose screening, leukemia HL-60, TB; type: cell-based, human; settings: 10 μM
IGROV1 = experiment: NCI one-dose screening, ovarian cancer IGROV1; type: cell-based, human; settings: 10 μM
U251 = experiment: NCI one-dose screening, CNS cancer U251; type: cell-based, human; settings: 10 μM
DU145 = experiment: NCI one-dose screening, prostate cancer DU145; type: cell-based, human; settings: 10 μM
CCRF-CEM = experiment: NCI screening platform one-dose single concentration screening, leukemia CCRF-CEM; type: cell-based, human; settings: 10 μM
TK-10 = experiment: NCI one-dose screening, renal cancer TK-10; type: cell-based, human; settings: 10 μM
NCI-H226 = experiment: NCI one-dose screening, non-small cell lung cancer NCI-H226; type: cell-based, human; settings: 10 μM
SF-268 = experiment: NCI one-dose screening, CNS cancer SF-268; type: cell-based, human; settings: 10 μM
SK-MEL-2 = experiment: NCI one-dose screening, melanoma SK-MEL-2; type: cell-based, human; settings: 10 μM
UACC-62 = experiment: NCI one-dose screening, melanoma UACC-62; type: cell-based, human; settings: 10 μM
PRMI-8226 cell line = experiment: NCI one-dose screening, leukemia PRMI-8226; type: cell-based, human; settings: 10 μM
HOP-92 = experiment: NCI one-dose screening, non-small cell lung cancer HOP-92; type: cell-based, human; settings: 10 μM
HOP-62 = experiment: NCI one-dose screening, non-small cell lung cancer HOP-62; type: cell-based, human; settings: 10 μM
SR = experiment: NCI one-dose screening, leukemia SR; type: cell-based, human; settings: 10 μM
HCT-116 = experiment: NCI one-dose screening, colon cancer HCT-116; type: cell-based, human; settings: 10 μM
MCF7 = experiment: NCI one-dose screening, breast cancer MCF7; type: cell-based, human; settings: 10 μM
SK-OV-3 = experiment: NCI one-dose screening, ovarian cancer SK-OV-3; type: cell-based, human; settings: 10 μM
SK-MEL-5 = experiment: NCI one-dose screening, melanoma SK-MEL-5; type: cell-based, human; settings: 10 μM
NCI-H322M = experiment: NCI one-dose screening, non-small cell lung cancer NCI-H322M; type: cell-based, human; settings: 10 μM; Non-small cell lung cancer
CAKI-1 = experiment: NCI one-dose screening, renal cancer CAKI-1; type: cell-based, human; settings: 10 μM
RXF, 393 = experiment: NCI one-dose screening, renal cancer RXF, 393; type: cell-based, human; settings: 10 μM
[1] = tested on: PC-3 prostate cancer cell line; experiment: SRB assay cell viability, PC-3 prostate cancer cell line; type: cell-based, human; settings: Homo sapiens
UACC-257 = experiment: NCI one-dose screening, melanoma UACC-257; type: cell-based, human; settings: 10 μM
A549/ATCC = experiment: NCI one-dose screening, non-small cell lung cancer A549/ATCC; type: cell-based, human; settings: 10 μM
SNB-19 = experiment: NCI one-dose screening, CNS cancer SNB-19; type: cell-based, human; settings: 10 μM
K562cell line = experiment: NCI one-dose screening, leukemia K562; type: cell-based, human; settings: 10 μM
MDA-MB-231/ATCC = experiment: NCI one-dose screening, breast cancer MDA-MB-231/ATCC; type: cell-based, human; settings: 10 μM
HCC-2998 = experiment: NCI one-dose screening, colon cancer HCC-2998; type: cell-based, human; settings: 10 μM
786-O = experiment: NCI one-dose screening, renal cancer 786-O; type: cell-based, human; settings: 10 μM
NCI-H23 = experiment: NCI one-dose screening, non-small cell lung cancer NCI-H23; type: cell-based, human; settings: 10 μM
NCI-H522 = experiment: NCI one-dose screening, non-small cell lung cancer NCI-H522; type: cell-based, human; settings: 10 μM
[2] = NCI one-dose screening, renal cancer A489; type: cell-based, human; settings: 10 μM
HCT-15 = experiment: NCI one-dose screening, colon cancer HCT-15; type: cell-based, human; settings: 10 μM
SF-539 = experiment: NCI one-dose screening, CNS cancer SF-539; type: cell-based, human; settings: 10 μM
LOX IMVI = experiment: NCI one-dose screening, melanoma LOX IMVI; type: cell-based, human; settings: 10 μM
MOLT-4 = experiment: NCI one-dose screening, leukemia MOLT-4; type: cell-based, human; settings: 10 μM
SNB-75 = experiment: NCI one-dose screening, CNS cancer SNB-75; type: cell-based, human; settings: 10 μM
M14 = experiment: NCI one-dose screening, melanoma M14; type: cell-based, human; settings: 10 μM
NCI-H460 = experiment: NCI one-dose screening, non-small cell lung cancer NCI-H460; type: cell-based, human; settings: 10 μM
MDA-MB-468 = experiment: NCI one-dose screening, breast cancer MDA-MB-468; type: cell-based, human; settings: 10 μM
OVCAR-3 = experiment: NCI one-dose screening, ovarian cancer OVCAR-3; type: cell-based, human; settings: 10 μM
human tumor cell lines = experiment: NCI one-dose screening, Mean / Delta / Range of growth percent over all tested cell lines; type: cell-based; settings: 10 μM
KM12 = experiment: NCI one-dose screening, colon cancer KM12; type: cell-based, human; settings: 10 μM
OVCAR-4 = experiment: NCI one-dose screening, ovarian cancer OVCAR-4; type: cell-based, human; settings: 10 μM
SN12C = experiment: NCI one-dose screening, renal cancer SN12C; type: cell-based, human; settings: 10 μM
HS 578-T = experiment: NCI one-dose screening, breast cancer HS 578-T; type: cell-based, human; settings: 10 μM; Breast cancer

O=C1c2ccccc2C(=O)c2c1cc(Sc1ccccc1)c1nsnc21 [C19, 4-(phenylthio)anthra[2,1-c][1,2,5] thiadiazol-6,11-dione]
Growth Percent OVCAR-8 (OVCAR-8): 82.3% | Growth Percent SF-295 (SF-295): 106.36% | Growth Percent T-47D (T-47D): 93.21% | Growth Percent BT-549 (BT-549): 104.68% | Growth Percent SK-MEL-28 (SK-MEL-28): 127.12% | Growth Percent COLO 205 (COLO 205): 117.53% | Growth Percent MALME-3M (MALME-3M): 106.43% | Growth Percent PC-3 (PC-3): 87.32% | Growth Percent UO-31 (UO-31): 80.12% | Growth Percent HL-60(TB) (HL-60, TB): 83.94% | Growth Percent IGROV1 (IGROV1): 84.4% | Growth Percent U251 (U251): 88.75% | Growth Percent DU145 (DU145): 102.73% | Growth Percent CCRF-CEM (CCRF-CEM): 15.74% | Growth Percent TK-10 (TK-10): 143.47% | Growth Percent NCI-H226 (NCI-H226): 117.67% and 94.91% | Growth Percent SF-268 (SF-268): 102.24% | Growth Percent SK-MEL-2 (SK-MEL-2): 112.49% | Growth Percent UACC-62 (UACC-62): 86.28% | Growth Percent RPMI-8226 (PRMI-8226 cell line): 78.21% | Growth Percent HOP-92 (HOP-92): 110.22% | Growth Percent HOP-62 (HOP-62): 97.77% | Growth Percent SR (SR): 86.41% | Growth Percent HCT-116 (HCT-116): 90.08% | Growth Percent MCF7 (MCF7): 94.88% | Growth Percent SK-OV-3 (SK-OV-3): 105.6% | Growth Percent SK-MEL-5 (SK-MEL-5): 85.68% | Growth Percent NCI-H322M (NCI-H322M): 79.21% | Growth Percent CAKI-1 (CAKI-1): 89.04% | Growth Percent RXF 393 (RXF, 393): 114.31% | IC50 ([1]; PC-3 prostate cancer cell line, Table II prints no unit, μM printed, read-out: SRB assay: 50% inhibition of cancer cell proliferation of sample concentration (IC50) of PC-3 prostate cancer cell line): 28.6 µM | IC50 ([1]; PC-3 prostate cancer cells, read-out: IC50 in PC-3 prostate cancer cells (cell viability analysis)): > 15 µM | Growth Percent UACC-257 (UACC-257): 92.75% | Growth Percent A549/ATCC (A549/ATCC): 105.68% | Growth Percent SNB-19 (SNB-19): 108.79% | Growth Percent K562 (K562cell line): 52.03% | Growth Percent MDA-MB-231/ATCC (MDA-MB-231/ATCC): 66.67% | Growth Percent HCC-2998 (HCC-2998): 110.88% | Growth Percent 786-0 (786-O): 110.04% | Growth Percent NCI-H23 (NCI-H23): 101.59% | Growth Percent NCI-H522 (NCI-H522): 100.56% | Growth Percent A498 [2]: 95.01% | Growth Percent HCT-15 (HCT-15): 93.89% | Growth Percent SF-539 (SF-539): 106.54% | Growth Percent LOX IMVI (LOX IMVI): 42% | Growth Percent MOLT-4 (MOLT-4): 31.08% | Growth Percent SNB-75 (SNB-75): 96.12% | Growth Percent M14 (M14): 106.41% | Growth Percent NCI-H460 (NCI-H460): 100.74% | Growth Percent MDA-MB-468 (MDA-MB-468): 87.29% | Growth Percent OVCAR-3 (OVCAR-3): 96.67% | Growth Percent Delta (human tumor cell lines; delta over all cell lines): 77.74% | Growth Percent Mean (human tumor cell lines; mean over all cell lines): 93.48% | Growth Percent Range (human tumor cell lines; range over all cell lines): 123.73% | Growth Percent KM12 (KM12): 99.5% | Growth Percent OVCAR-4 (OVCAR-4): 57.83% | Growth Percent SN12C (SN12C): 96.58% | Growth Percent HS 578T (HS 578-T): 95.89%

From patent US8877748B2, “Heterocyclic fused anthraquinone derivatives, manufacturing method and pharmaceutical composition using thereof” (National Defense Medical Center, priority 2012, dated 2014)
